Reference: US20160355684A1, “ANTHRAQUINONE DYE USED FOR A COLOR FILTER OF A LCD” (DOW GLOBAL TECHNOLOGIES LLC, priority 2014, published 2016)

How the values were obtained:
Type in all cases: physicochemical
[1] = Thermal stability of films (chromaticity difference ΔEab after baking); conditions: for ΔEab after baking at 230° C. for 1 h: film of dye in alkaline soluble acrylic resin on glass, hard bake 230° C., air, smaller value = better heat resistance
Method: 0.15 g of Dye 1, 1.35 g PGMEA and 1.00 g of alkaline soluble acrylic resin solution (MIPHOTO RPR4022, supplied from Miwan Commercial Co., Ltd., 25 to 35% of solid content in (methyl 3-methoxypropionate)) were mixed and stirred for overnight at room temperature using a shaker. The solution was filtered with a 0.45 μm Acrodisc CR PTFE filter to get rid of big particles. Then the filtered solution was spin coated onto a clean glass substrate with 400 rpm spin speed for 18 seconds. The obtained film was first dried at 90° C. under air atmosphere for 30 minutes, and then hard baked at 230° C. under air atmosphere for 1 hour. The CIE values (xyY values and lab values) and the UV-Vis were measured before and after the hard bake.
The obtained dry film was further baked at 230° C. under air for 1 hour to evaluate thermal stability of the film. Optical performance after baking (ΔEab value) was 1.8, and the one of after further baking was 2.7. A smaller ΔEab value indicates better heat resistance.
(4) Thermal Stability of Films (Chromaticity):
The wet film after spin coating is dried in oven at 90° C. for 30 minutes and then soft baked at 150° C. for 15 minutes. The chromaticity coordinates (L, a, b) are recorded with UltraScan Pro (Hunterlab) colorimeter. D65/10 light source is used and results are based on CIE Lab coordinates. After that the film is hard baked at target temperature (230° C.) for 1 hour and the new chromaticity coordinates (L′, a′, b′) are recorded with the method above. The thermal stability of a film is indicated by the difference of chromaticity coordinate after baking at 230° C. represented by the following formula;
ΔE=√{square root over ((L−L′)^2+(a−a′)^2+(b−b′)^2)}

[2] = Solubility of dye in PGMEA; conditions: solvent PGMEA (propylene glycol monomethyl ether acetate)
[3] = Thermal stability of dyes (mass loss measured by TGA); conditions: dye itself
Method: (1) Thermal Stability of Dyes (Mass Loss Measured by TGA):
The thermal stability of dye itself was determined by the mass loss of dye measured by TGA under air atmosphere at 230° C. for 1 hour. This evaluation reflects chemical stability of the dye itself.

| SMILES | ΔEab after baking at 230° C. for 1 h [1] | Solubility in PGMEA (wt %) [2] [wt %] | weight loss at 230° C. for 1 h in air from TGA [3] [%] | Optical performance after baking (ΔEab value) ([1]; Dye 1 film, after baking) | ΔEab value after further baking ([1]; Dye 1 film, further baked at 230° C. under air for 1 hour) |
| --- | --- | --- | --- | --- | --- |
| Cc1cc(C)c(Nc2ccc(Nc3c(C)cc(C)cc3C)c3c2C(=O)c2ccccc2C3=O)c(C)c1 [Solvent Blue 104, 1,4-bis(mesitylamino)anthraquinone, reference compound] | 7.0 | 0.6 |  |  |  |
| Cc1cc(C)c(Nc2ccc(Nc3c(C)cc(OCCC[Si](C)(O[Si](C)(C)C)O[Si](C)(CCCOc4cc(C)c(Nc5ccc(Nc6c(C)cc(C)cc6C)c6c5C(=O)c5ccccc5C6=O)c(C)c4)O[Si](C)(C)C)cc3C)c3c2C(=O)c2ccccc2C3=O)c(C)c1 (centres unmarked) [Dye 2] | 3.6 | 11.0 | 6.79 |  |  |
| Cc1cc(C)c(Nc2ccc(Nc3c(C)cc(OCCC[Si](C)(C)O[Si](C)(C)O[Si](C)(C)CCCOc4cc(C)c(Nc5ccc(Nc6c(C)cc(C)cc6C)c6c5C(=O)c5ccccc5C6=O)c(C)c4)cc3C)c3c2C(=O)c2ccccc2C3=O)c(C)c1 [Dye 2] |  |  | 2.49 |  |  |
| Cc1cc(C)c(Nc2ccc(Nc3c(C)cc(OCCC[Si](C)(C)O[Si](C)(C)O[Si](C)(C)CCCOc4cc(C)c(Nc5ccc(Nc6c(C)cc(C)cc6C)c6c5C(=O)c5ccccc5C6=O)c(C)c4)cc3C)c3c2C(=O)c2ccccc2C3=O)c(C)c1 [Dye 3] | 1.5 | 9.7 |  |  |  |
| CC(C)Nc1ccc(NC(C)C)c2c1C(=O)c1ccccc1C2=O [Solvent Blue 36, reference compound] | 33 (color almost | 1.92 |  |  |  |
| Cc1cc(OCCC[Si](C)(O[Si](C)(C)C)O[Si](C)(C)C)cc(C)c1Nc1ccc(Nc2c(C)cc(OCCC[Si](C)(O[Si](C)(C)C)O[Si](C)(C)C)cc2C)c2c1C(=O)c1ccccc1C2=O [Dye 1] | 3.2 | 17 | 7.74 | 1.8 | 2.7 |
| CC(C[Si](C)(O[Si](C)(C)C)O[Si](C)(C)C)C(=O)OCCNc1ccc(NCCOC(=O)C(C)C[Si](C)(O[Si](C)(C)C)O[Si](C)(C)C)c2c1C(=O)c1ccccc1C2=O (centres unmarked) [(QS), reference compound] | 24.5 (color changed | ~4.6 |  |  |  |
